In ChEMBL document CHEMBL2028040, “Malaria Box”:

Assays:
[1] = system: Trypanosoma brucei rhodesiense; test: MMV: Inhibition of Trypanosoma brucei rhodesiense (STIB 900) (HAT in vitro).; format: functional, organism-based
[2] = MMV: Cytotoxicity against human fibroblasts (MRC-5) cells.; details: MRC-5 cells (human fibroblasts)
Plasmodium falciparum [3] = test: MMV: Inhibition of Plasmodium falciparum 3D7 (EC50).; format: functional, organism-based
Plasmodium falciparum [4] = test: MMV: Inhibition of Plasmodium falciparum 3D7 at 5uM compound concentration.; format: functional
Trypanosoma cruzi = test: MMV: Inhibition of Trypanosoma cruzi (Tulahuen C4 LacZ) (Chagas in vitro).; format: functional, organism-based
Leishmania infantum = test: MMV: Inhibition of Leishmania infantum (MHOM/MA/BE/67) in vitro.; format: functional, organism-based
Plasmodium falciparum [5] = test: MMV: Inhibition of Plasmodium falciparum K1 (EC50).; format: functional, organism-based
[6] = system: Trypanosoma brucei brucei; test: MMV: Inhibition of Trypanosoma brucei brucei (Squib 427) (HAT in vitro).; format: functional, organism-based

Compound: c1ccc(/C2=N/c3ccccc3/N=C(/c3ccccc3)c3ccccc32)cc1
- IC50 [1]: 4.52 µM
- IC50 [2]: > 32 µM
- EC50 (Plasmodium falciparum [3]): 0.661 µM
- inhibition at 5 µM (Plasmodium falciparum [4]): 99%
- IC50 (Trypanosoma cruzi): 26.1 µM
- IC50 (Leishmania infantum): 16.6 µM
- EC50 (Plasmodium falciparum [5]): 1.1 µM
- IC50 [6]: 16.5 µM

Compound: CCOc1cc2c(cc1OCC)C(c1cc(OC)c(O)cc1Cl)NCC2 (stereo not given)
- IC50 [1]: 16.2 µM
- IC50 [2]: > 32 µM
- EC50 (Plasmodium falciparum [3]): 0.37 µM
- inhibition at 5 µM (Plasmodium falciparum [4]): 98%
- IC50 (Trypanosoma cruzi): 14.6 µM
- IC50 (Leishmania infantum): > 32 µM
- EC50 (Plasmodium falciparum [5]): 0.114 µM
- IC50 [6]: 15.2 µM

Compound: Brc1ccc(Nc2nc3ccccc3nc2Nc2ccc(Br)cc2)cc1
- IC50 [1]: 1.32 µM
- IC50 [2]: 5.88 µM
- EC50 (Plasmodium falciparum [3]): 1.06 µM
- inhibition at 5 µM (Plasmodium falciparum [4]): 98%
- IC50 (Trypanosoma cruzi): 3.52 µM
- IC50 (Leishmania infantum): 4.06 µM
- EC50 (Plasmodium falciparum [5]): 0.497 µM
- IC50 [6]: 4.09 µM

Compound: Cc1ccc(CSCc2ccc(C(=O)NC3CC3)o2)cc1
- IC50 [1]: > 32 µM
- IC50 [2]: > 32 µM
- EC50 (Plasmodium falciparum [3]): 0.635 µM
- inhibition at 5 µM (Plasmodium falciparum [4]): 97%
- IC50 (Trypanosoma cruzi): > 32 µM
- IC50 (Leishmania infantum): > 32 µM
- EC50 (Plasmodium falciparum [5]): 1.13 µM
- IC50 [6]: > 32 µM

Compound: Cc1cc(Nc2ccc(OCc3ccccc3)cc2)nc2cc(O)ccc12
- IC50 [1]: 3.54 µM
- IC50 [2]: 14 µM
- EC50 (Plasmodium falciparum [3]): 0.684 µM
- inhibition at 5 µM (Plasmodium falciparum [4]): 96%
- IC50 (Trypanosoma cruzi): 4.39 µM
- IC50 (Leishmania infantum): 16.2 µM
- EC50 (Plasmodium falciparum [5]): 0.52 µM
- IC50 [6]: 11.9 µM

Compound: COc1cc(-c2nc(-c3ccc(Sc4ccccc4)cc3)c(-c3ccccc3)[nH]2)cc(OC)c1O
- IC50 [1]: 3.61 µM
- IC50 [2]: 8.45 µM
- EC50 (Plasmodium falciparum [3]): 0.35 µM
- inhibition at 5 µM (Plasmodium falciparum [4]): 97%
- IC50 (Trypanosoma cruzi): 11.1 µM
- IC50 (Leishmania infantum): 16.2 µM
- EC50 (Plasmodium falciparum [5]): 0.976 µM
- IC50 [6]: 3.37 µM

Compound: Cc1ccc(-c2cc3nc4c(c(O)n3n2)CCCC4)cc1
- IC50 [1]: 3.73 µM
- IC50 [2]: > 32 µM
- EC50 (Plasmodium falciparum [3]): 0.396 µM
- inhibition at 5 µM (Plasmodium falciparum [4]): 73%
- IC50 (Trypanosoma cruzi): > 32 µM
- IC50 (Leishmania infantum): > 32 µM
- EC50 (Plasmodium falciparum [5]): 1.12 µM
- IC50 [6]: 15.5 µM

Compound: Cc1ccccc1OCCSc1nc2ccc(NC(=O)c3cccs3)cc2s1
- IC50 [1]: 2.77 µM
- IC50 [2]: > 32 µM
- EC50 (Plasmodium falciparum [3]): 0.697 µM
- inhibition at 5 µM (Plasmodium falciparum [4]): 96%
- IC50 (Trypanosoma cruzi): 4.65 µM
- IC50 (Leishmania infantum): 17.3 µM
- EC50 (Plasmodium falciparum [5]): 1.04 µM
- IC50 [6]: 3.94 µM

Compound: c1ccc2cc3c(Nc4ccc(N5CCOCC5)cc4)ccnc3cc2c1
- IC50 [1]: 0.346 µM
- IC50 [2]: > 32 µM
- EC50 (Plasmodium falciparum [3]): 0.251 µM
- inhibition at 5 µM (Plasmodium falciparum [4]): 97%
- IC50 (Trypanosoma cruzi): 1.29 µM
- IC50 (Leishmania infantum): > 32 µM
- EC50 (Plasmodium falciparum [5]): 0.516 µM
- IC50 [6]: 0.332 µM

Compound: CC(C)CCNCC(O)Cn1c2ccccc2c2ccccc21 (stereo not given)
- IC50 [1]: 1 µM
- IC50 [2]: 16.2 µM
- EC50 (Plasmodium falciparum [3]): 0.473 µM
- inhibition at 5 µM (Plasmodium falciparum [4]): 97%
- IC50 (Trypanosoma cruzi): 6.73 µM
- IC50 (Leishmania infantum): 4 µM
- EC50 (Plasmodium falciparum [5]): 0.21 µM
- IC50 [6]: 0.931 µM

Compound: COc1ccc(C2C(C(=O)Nc3cccc(OC)c3)c3ccccc3C(=O)N2C2CCCCC2)cc1 (stereo not given)
- IC50 [1]: 3.7 µM
- IC50 [2]: > 32 µM
- EC50 (Plasmodium falciparum [3]): 1.18 µM
- inhibition at 5 µM (Plasmodium falciparum [4]): 97%
- IC50 (Trypanosoma cruzi): 15.6 µM
- IC50 (Leishmania infantum): 6.35 µM
- EC50 (Plasmodium falciparum [5]): 1.6 µM
- IC50 [6]: 4.06 µM

Compound: O=C(Nc1ccc(C23CC4CC(CC(c5ccccc5)(C4)C2)C3)cc1)c1cccs1
- IC50 [1]: > 32 µM
- IC50 [2]: > 32 µM
- EC50 (Plasmodium falciparum [3]): 0.826 µM
- inhibition at 5 µM (Plasmodium falciparum [4]): 96%
- IC50 (Trypanosoma cruzi): > 32 µM
- IC50 (Leishmania infantum): > 32 µM
- EC50 (Plasmodium falciparum [5]): 1.27 µM
- IC50 [6]: > 32 µM

Compound: CN1C=C(c2ccc3ccccc3n2)C(c2c[nH]c3ccccc23)c2ccccc21 (stereo not given)
- IC50 [1]: 0.979 µM
- IC50 [2]: > 32 µM
- EC50 (Plasmodium falciparum [3]): 0.552 µM
- inhibition at 5 µM (Plasmodium falciparum [4]): 95%
- IC50 (Trypanosoma cruzi): 0.934 µM
- IC50 (Leishmania infantum): 16.2 µM
- EC50 (Plasmodium falciparum [5]): 1.06 µM
- IC50 [6]: 3.77 µM

Compound: COc1ccc(OC)c(C2C3=C(CC(C)(C)CC3=O)N(c3ccc(Cl)c(Cl)c3)C3=C2C(=O)CC(C)(C)C3)c1
- IC50 [1]: 16.2 µM
- IC50 [2]: > 32 µM
- EC50 (Plasmodium falciparum [3]): 0.912 µM
- inhibition at 5 µM (Plasmodium falciparum [4]): 90%
- IC50 (Trypanosoma cruzi): > 32 µM
- IC50 (Leishmania infantum): > 32 µM
- EC50 (Plasmodium falciparum [5]): 1.07 µM
- IC50 [6]: 16.6 µM

Compound: Cc1cccc(N2C(=O)C3C(C2=O)C2(c4ccccc4)C(=O)C3(c3ccccc3)C(c3ccc4c(c3)OCO4)=C2c2ccc3c(c2)OCO3)c1 (stereo not given)
- IC50 [1]: > 32 µM
- IC50 [2]: > 32 µM
- EC50 (Plasmodium falciparum [3]): 0.304 µM
- inhibition at 5 µM (Plasmodium falciparum [4]): 94%
- IC50 (Trypanosoma cruzi): > 32 µM
- IC50 (Leishmania infantum): > 32 µM
- EC50 (Plasmodium falciparum [5]): 0.261 µM
- IC50 [6]: > 32 µM

Compound: COc1ccc(C(C)=O)cc1N1C(=O)C2C(C1=O)C1(c3ccccc3)C(=O)C2(c2ccccc2)C(c2ccc(C)cc2)=C1c1ccc(C)cc1 (stereo not given)
- IC50 [1]: > 32 µM
- IC50 [2]: > 32 µM
- EC50 (Plasmodium falciparum [3]): 0.179 µM
- inhibition at 5 µM (Plasmodium falciparum [4]): 96%
- IC50 (Trypanosoma cruzi): > 32 µM
- IC50 (Leishmania infantum): > 32 µM
- EC50 (Plasmodium falciparum [5]): 0.224 µM
- IC50 [6]: > 32 µM

Compound: Cc1ccc(F)cc1NC(=O)c1cc(Cl)ccc1Nc1ccccc1
- IC50 [1]: > 32 µM
- IC50 [2]: > 32 µM
- EC50 (Plasmodium falciparum [3]): 0.539 µM
- inhibition at 5 µM (Plasmodium falciparum [4]): 99%
- IC50 (Trypanosoma cruzi): > 32 µM
- IC50 (Leishmania infantum): > 32 µM
- EC50 (Plasmodium falciparum [5]): 0.507 µM
- IC50 [6]: > 32 µM

Compound: OC1=C2C(=Nc3ccccc3SC2c2ccc(Br)cc2)c2ccccc21 (stereo not given)
- IC50 [1]: 2.66 µM
- IC50 [2]: > 32 µM
- EC50 (Plasmodium falciparum [3]): 0.567 µM
- inhibition at 5 µM (Plasmodium falciparum [4]): 97%
- IC50 (Trypanosoma cruzi): 3.62 µM
- IC50 (Leishmania infantum): 4.32 µM
- EC50 (Plasmodium falciparum [5]): 0.961 µM
- IC50 [6]: 4.09 µM

Compound: Clc1ccc2c(N3CCCC3)ccnc2c1
- IC50 [1]: 14.4 µM
- IC50 [2]: > 32 µM
- EC50 (Plasmodium falciparum [3]): 0.944 µM
- inhibition at 5 µM (Plasmodium falciparum [4]): 97%
- IC50 (Trypanosoma cruzi): > 32 µM
- IC50 (Leishmania infantum): > 32 µM
- EC50 (Plasmodium falciparum [5]): 1.29 µM
- IC50 [6]: 16 µM

Compound: COc1cc2c3cc1Oc1c(OC)c(OC)cc4c1C(Cc1ccc(O)c(c1)Oc1ccc(cc1)CC3N(C)CC2)N(C)CC4 (stereo not given)
- IC50 [1]: 4.59 µM
- IC50 [2]: 4.42 µM
- EC50 (Plasmodium falciparum [3]): 1.27 µM
- inhibition at 5 µM (Plasmodium falciparum [4]): 96%
- IC50 (Trypanosoma cruzi): 3.67 µM
- IC50 (Leishmania infantum): 12 µM
- EC50 (Plasmodium falciparum [5]): 1.19 µM
- IC50 [6]: 14.5 µM

Compound: Cc1ccc(N2C3c4ccccc4N(S(=O)(=O)c4ccc(C)cc4)C2c2ccccc2N3S(=O)(=O)c2ccc(C)cc2)cc1
- IC50 [1]: 16.5 µM
- IC50 [2]: > 32 µM
- EC50 (Plasmodium falciparum [3]): 0.0248 µM
- inhibition at 5 µM (Plasmodium falciparum [4]): 97%
- IC50 (Trypanosoma cruzi): > 32 µM
- IC50 (Leishmania infantum): 16.2 µM
- EC50 (Plasmodium falciparum [5]): 0.0276 µM
- IC50 [6]: > 32 µM

Compound: CCOc1c(Br)cc(C2C(C(=O)OC)=CN(C)C=C2C(=O)OC)cc1OC
- IC50 [1]: 30.9 µM
- IC50 [2]: > 32 µM
- EC50 (Plasmodium falciparum [3]): 0.512 µM
- inhibition at 5 µM (Plasmodium falciparum [4]): 96%
- IC50 (Trypanosoma cruzi): > 32 µM
- IC50 (Leishmania infantum): > 32 µM
- EC50 (Plasmodium falciparum [5]): 1.07 µM
- IC50 [6]: > 32 µM

Compound: COc1ccccc1N1C(=N)SC(=Cc2ccc(OCc3ccccc3F)cc2)C1=O
- IC50 [1]: 4.12 µM
- IC50 [2]: > 32 µM
- EC50 (Plasmodium falciparum [3]): 0.478 µM
- inhibition at 5 µM (Plasmodium falciparum [4]): 95%
- IC50 (Trypanosoma cruzi): 16.3 µM
- IC50 (Leishmania infantum): 25.4 µM
- EC50 (Plasmodium falciparum [5]): 0.824 µM
- IC50 [6]: 10 µM

Compound: CCOC(=O)C1=CN(C)C=C(C(=O)OCC)C1c1cc(Br)c(OCC)c(OC)c1
- IC50 [1]: 13.9 µM
- IC50 [2]: > 32 µM
- EC50 (Plasmodium falciparum [3]): 0.518 µM
- inhibition at 5 µM (Plasmodium falciparum [4]): 97%
- IC50 (Trypanosoma cruzi): 13.6 µM
- IC50 (Leishmania infantum): > 32 µM
- EC50 (Plasmodium falciparum [5]): 0.945 µM
- IC50 [6]: 15.7 µM

Compound: CCCCc1c(CCC)c(=N)c2ccccc2n1C
- IC50 [1]: 3.92 µM
- IC50 [2]: 19.3 µM
- EC50 (Plasmodium falciparum [3]): 0.716 µM
- inhibition at 5 µM (Plasmodium falciparum [4]): 77%
- IC50 (Trypanosoma cruzi): 0.375 µM
- IC50 (Leishmania infantum): 6.35 µM
- EC50 (Plasmodium falciparum [5]): 1.58 µM
- IC50 [6]: 4 µM
